Laboratory results from patent US12215389B2, “Compositions for detecting epigenetic modifications” (EXACT SCIENCES CORPORATION, priority 2007, dated 2025).

System: methylated gene promoters in plasma DNA
Test: Real-time MSP on plasma DNA
Set-up: species or system human
Conditions: for % Specificity (all 59 controls), plasma set 1: plasma training set 1; for % Sensitivity adenomas plasma set 2: increased plasma equivalent of DNA per real-time MSP assay / % Specificity (all 89 controls), plasma set 2: increased plasma equivalent of DNA per real-time MSP assay: plasma training set 2
Method: 10 ml of blood was obtained per individual using EDTA Vacutainer™ tubes. Individuals with no suspicious findings, adenomas or carcinomas based on colonoscopy were enrolled in the present study. Within 4 hrs from the blood drawing, the plasma fraction was separated from the cell fraction by centrifugation at 1500 g for 15 min (4° C.). The plasma was transferred to new tubes and once again centrifuged (1500 g, 15 min, 4° C.), after which the supernatant was transferred to new tubes and stored at −80° C. until further use. Samples were shipped on dry ice.
DNA isolation from plasma samples (1.2 to 6 ml) was performed using an upscaled phenol-chloroform DNA isolation method using the 15 ml of Heavy Phase lock Gel tubes (PLG tubes) (Eppendorf, cat #0032 005.152) or alternatively the ChargeSwitch® gDNA 1 ml serum kit from Invitrogen (cat #CS11040).
Plasma samples were thawed and 1/10 volume of 10× buffer (240 mM EDTA (pH=8.0), 750 mM NaCl), 1/10 volume of 10% SDS and 5 μl of Proteinase K (20 mg/ml stock solution) per 1 ml of sample (e.g. 15 μl for 3 ml of sample) was added to each plasma sample. This mixture was incubated overnight at 48° C. at constant shaking (200 RPM).
Subsequently the PLG tube was centrifuged at 2500 RCF for 3 min, sample mixture and approximately the same volume of phenol/chloroform (Invitrogen, cat #15593049) were added to it. This solution was briefly vortexed, mixed for 10 min using a tube rocker at room temperature and centrifuged for 5 min at 2500 RCF. In case the retrieved sample volume was ≤4 ml, an equal volume of phenol/chloroform was added. The upper aqueous layer was phenol/chloroform-treated for a second time.
DNA was precipated from the upper aqueous layer by adding 5 μl glycogen, 1/10 volume of 7.5 M Ammonium Acetate and 2-2.5 volumes of cold (−20° C.) 100% ethanol. Tubes were gently inverted and incubated at −20° C. for at least 1 h, followed by a centrifugation step at 17000 RCF for 30 min (4° C.). Ethanol was carefully removed by pipetting. Pellets were washed with 2 ml freshly prepared 70% ethanol, vortexed gently and submitted to a centrifugation step at 17000 RCF for 15 min at 4° C. After careful removal of the remaining ethanol, pellets were air dried and resuspended in 45 μl of LoTE pH 8.0. The isolated DNA is stored at −80° C. until further processing.
The complete content of DNA isolated in above procedure was subjected to sodium bisulfite treatment (BT) using the EZ-96 DNA Methylation kit from Zymo Research (Cat #D5003) performed on a pipetting robot (Tecan Freedom EVOII, Roma, Liha, Mca, Te-Vacs). Briefly, 45 μl of plasma DNA sample was mixed with 5 μl of M-Dilution Buffer (provided in kit) and incubated at 37° C. for 15 min shaking at 1100 RPM. This mixture was further incubated with 100 μl of diluted CT conversion reagent (provided in kit) shaking at 70° C. for 3 hours (protected from light). Subsequently the modified DNA was desalted and desulfonated according to manufacturer's instructions and eluted in either 40 μl or 20 μl of Tris-HCl 1 mM pH8.0, depending on the applied concentration procedure. The eluted material was stored at −80° C. until further processing.
2.4 μl of the modified DNA was added to a PCR mix (total volume 12 μl) containing home-made buffer solution (final concentrations are summarized: 16.6 mM (NH4)2SO4, 67 mM Tris (pH 8.8), 6.7 mM MgCl2, 10 mM β-mercaptoethanol), dNTPs (5 mM; Amersham Biosciences cat #27-2035-02), methylation specific forward primer (6 ng), methylation specific reverse primer (18 ng), molecular beacon (0.16 μM) and Jumpstart DNA Taq polymerase (0.4 units; Sigma Cat #D9307).
A standard curve was included (9.6×10^5—9.6 copies) to determine copy numbers of unknown samples by interpolation of their Ct values to the standard curve.
DNA was isolated following the upscaled phenol-chloroform procedure; subsequently the whole DNA sample was modified as described above.

Substance: GATA5 (DNA AGTTCGTTTTTAGGTTAGTTTTCGGC; listed as DNA, chemistry not given here)
- % Specificity (all 59 controls), plasma set 1: 97%
- % Sensitivity adenomas plasma set 2: increased plasma equivalent of DNA per real-time MSP assay: 6%
- % Specificity (all 89 controls), plasma set 2: increased plasma equivalent of DNA per real-time MSP assay: 99%

Substance: SFRP1 (DNA TGTAGTTTTCGGAGTTAGTGTCGCGC; listed as DNA, chemistry not given here)
- % Specificity (all 59 controls), plasma set 1: 98%
- % Sensitivity adenomas plasma set 2: increased plasma equivalent of DNA per real-time MSP assay: 2%
- % Specificity (all 89 controls), plasma set 2: increased plasma equivalent of DNA per real-time MSP assay: 96%
